According to patent publication EP3423441B1, “IODINATED ANALOGS OF CHOLINE, METHODS OF PREPARATION THEREOF, AND USE THEREOF AS MEDICAMENTS” (Univerzita Palackého v Olomouci, priority 2016, dated 2017):
Like-named read-outs stand apart in the source and are kept apart here.

Legend:
choline transporters [1] = test: In vitro determination of IC50: inhibition of [^3H]choline chloride accumulation in PC-3 cells; format: cell-based; conditions: cell line PC-3 (human prostate carcinoma); [^3H]choline chloride 0.81 × 10^-6 M; 60 min at 37 °C
Method: IC50 value corresponds to a concentration of the given analog of choline which reduces the accumulation of choline chloride, the natural ligand of choline transporterss, to 50 % of the maximum value. For the assay, the tritium labeled choline chloride, i.e. [^3H]choline chloride, was used. The assay was performed in vitro on the cell line PC-3 derived from a human prostate carcinoma, which is known to overexpress choline transporters. […] As the negative control, a cell line of human ovarian carcinoma SKOV3 prepared to the confluence of 90 % in 24-well plates was used.
The cultivation medium was removed from the thus prepared cells in cultivation plates and the cells were rinsed with phosphate buffered saline (PBS). Subsequently, 0.3 mL of "incubation buffer" (25 mM Tris/HCl, 5.4 mM KCl, 1.8 mM CaCl2, 0.8 mM MgSO4, 5 mM glucose, 140 mM NaCl, pH adjusted to 7.4) was added to the cells. Then 0.1 mL of the solution of the tested substance (analog of choline) in the incubation buffer was added to the PC-3 cells in such concentrations, that after adding [^3H]choline chloride the resulting concentrations of the tested analog would be following: 0 M, 10^-8 M, 10^-7 M, 10^-6 M, 5 × 10^-6 M, 10^-5 M, 10^-4 M, 5 × 10^-4 M, 10^-3 M, 5×10^-3 M. Each concentration was tested in triplicate.
Subsequently, all cells prepared in this manner (PC-3 and SKOV3) were incubated with the analogs of choline for 15 minutes at the temperature of 37 °C.
Then 0.1 mL of the solution of the [^3H]choline chloride in the incubation buffer was added to all cell-containing wells, so that 0.1 mL of the solution had the activity of 15 kBq and that the final concentration of the [^3H]choline chloride in the medium with the cells was 0.81 × 10^-6 M. The cells were then incubated at 37 °C for a period of 60 min. After the incubation, all buffer solution was removed from the cells. The cells were rinsed with PBS, which was subsequently removed, and 0.2 mL of aqueous NaOH solution (0.1 M) was added to each well. The cells were incubated with sodium hydroxide for 30 min at 37 °C. The lysate was then homogenized with a pipette and 10 µL of the lysate were used for the determination of protein concentration by bicinchonic acid assay (BCA).
The remaining lysate (180 µL) was quantitatively transferred into scintillation vials containing a previously prepared scintillation solution (2 mL of the solution in each vial). Each well was then additionally rinsed with 0.2 mL of pure water and this solution was added to the corresponding scintillation vials. Scintillation vials were closed and their content was stirred on a shaker.
To another three scintillation vials containing scintillation solution (2 mL of the solution in each vial) the standard samples of [^3H]choline chloride were added (i.e. 10 µl of the [^3H]choline chloride solution together with 180 µl of aqueous NaOH solution (0.1 M) and 200 µl of water). The vials were closed and their content was stirred on the shaker.
Subsequently, radioactivity of each scintillation vial was measured using a liquid scintillation counter (Tri-Carb 2910TR Liquid Scintillation Counter, PerkinElmer). The recorded counts per second (cps) were then used to calculate the accumulation of [^3H]choline chloride in the individual cell samples. […] These values were used to construct a sigmoid curve of dependence between the rate of [^3H]choline chloride accumulation and the competing ligand (analog of choline) concentration(inhibition curve, Figure 2). The IC50 values were calculated from these inhibition curves.

[2] = Binding to plasmatic proteins; conditions: plasma
Microsomal stability = conditions: hepatic microsomes
in vitro = conditions: liver microsomes
choline transporters [3] = conditions: published data, Müller S. A. et al. (2009); cited from earlier work

Compound | IC50 (choline transporters [1]) [µM] | fraction unbound [2] | Plasma stability (120 min) (Stability in the plasma) [%] | Microsomal stability t1l2 (Microsomal stability) [min] | microsomal CLint (in vitro) [µL/min/mg] | IC50 (choline transporters [3]) [µM]
Cc1ccc(S(=O)(=O)[O-])cc1.OCC[N+]1(CCc2ccc(I)cc2)CCCC1 [Example 7, 1-(2-hydroxyethyl)-1-[2-(4-iodophenyl)ethyl]pyrrolidin-1-ium 4-methylbenzenesulfonate] | 16 | 0.833 | 97.6 | 15.3 | 90.6 | 
Cc1ccc(S(=O)(=O)[O-])cc1.OC1C[N+]2(CCc3ccc(I)cc3)CCC1CC2 (stereo not drawn) [Example 8, 3-hydroxy-1-[2-(4-iodophenyl)ethyl]quinuclidin-1-ium 4-methylbenzenesulfonate] | 120 | 0.717 | 89.9 | 34.8 | 39.8 | 
Cc1ccc(S(=O)(=O)[O-])cc1.OCC[N+]1(Cc2ccccc2I)CCCCC1 [Example 14, 1-(2-hydroxyethyl)-1-(2-iodobenzyl)piperidin-1-ium 4-methylbenzenesulfonate] | 190 | 0.831 | 80.7 | 61.3 | 22.6 | 
CC[N+](CC)(CCO)Cc1ccccc1I.Cc1ccc(S(=O)(=O)[O-])cc1 [Example 15, Diethyl-(2-hydroxyethyl)-(2-iodobenzyl)ammonium 4-methylbenzenesulfonate] | 8.4 | 0.814 | 84.9 | 18.8 | 73.6 | 
C[N+]1(Cc2ccccc2I)CCCC(O)C1.Cc1ccc(S(=O)(=O)[O-])cc1 (stereo not drawn) [Example 16, 3-hydroxy-1-(2-iodobenzyl)-1-methylpiperidin-1-ium 4-methylbenzenesulfonate] | 240 | 0.956 | 79.0 | 119.5 | 11.6 | 
Cc1ccc(S(=O)(=O)[O-])cc1.OCCN1CC[N+](CCO)(Cc2ccccc2I)CC1 [Example 17, 1,4-bis(2-hydroxyethyl)-1-(2-iodobenzyl)piperazin-1-ium 4-methylbenzenesulfonate] | 740 | 0.943 | 58.4 | 1732.5 | 0.8 | 
Cc1ccc(S(=O)(=O)[O-])cc1.OC1C[N+]2(Cc3ccccc3I)CCC1CC2 (stereo not drawn) [Example 18, 3-hydroxy-1-(2-iodobenzyl)quinuclidin-1-ium 4-methylbenzenesulfonate] | 180 | 0.903 | 73.4 | 22.0 | 63 | 
C[N+](C)(CCO)Cc1ccccc1I.Cc1ccc(S(=O)(=O)[O-])cc1 [Example 19, (2-hydroxyethyl)-(2-iodobenzyl)-dimethylammonium 4-methylbenzenesulfonate] | 160 | 0.661 | 91.3 | 8.3 | 166 | 
C[N+]1(C)CCOC(O)(c2ccc(-c3ccc(C4(O)C[N+](C)(C)CCO4)cc3)cc2)C1 (stereo not drawn) [Hemicholinium-3, reference compound] | 29 |  |  |  |  | 17
